Data on 3 molecules can be found in article PMC10602174, “Simultaneous Inhibition of PI3K and PAK in Preclinical Models of Neurofibromatosis Type 2-related Schwannomatosis” (Research Square, 2023).

One data set has as its system HS01 cells. The experiment in a line: Incucyte live cell imaging, confluence and cleaved caspase 3/7. It counts as cell-based, human. Particulars: HS01, 72h time course. As to the method:
Human HS11, HS01, HS02, HS13 and HS05 and mouse MTC-10 cells (1,000 cells/well) were seeded in growth medium in three replicate wells/condition of a 384-well CellBIND Corning plate. […] Wells were imaged using the Incucyte® S5 Live-Cell Analysis system (Sartorius) for 24–72h. Phase and green fluorescent images were collected every 2h and analyzed using the integrated basic analyzer software.

The subject of another data set is HS01 cells (human MD-SC). The data set is described as follows: Cell viability (CellTiter-Fluor) and Combenefit synergy, 10x10 matrix. It counts as cell-based. The settings on record: HS01 72h, read-out: % Control cell viability. How it is done: (§1) Drugs used in this study are listed with their targets in Table S1. All drugs were obtained from SelleckChem (Houston, TX, USA), apart from (−)-B-Hydrastine (Santa Cruz Biotechnology, Dallas, TX, USA). Drugs were dissolved in DMSO (10 mM stock). MD-SCs were seeded in 384-well CellBind Corning plates at 1000 cells/well in phenol red-free media. After attachment, cells were treated with drugs at 10 concentrations in a 10×10 matrix. Mouse cells were treated for 48h and human cells for 72h prior to assessment of cell viability with CellTiter-Fluor Assay (Promega, Madison, WI, USA). All drugs were tested in at least two human MD-SC lines. Follow up testing was performed on a subset of combinations using the mouse MD-SC line. Matrix combination data was uploaded into the Combenefit software system to assess drug synergy using three methods (Loewe, Bliss, and HSA)([18]).

For the next data set, the system named is HS03 cells (human MD-SC). Described as above. It counts as cell-based. The settings on record: HS03 72h, read-out: % Control cell viability. As to the method: as §1
In the next data set the test system is MS01 cells (mouse MD-SC). The description is as above. Particulars: MS01 48h, read-out: % Control cell viability. It counts as cell-based. As to the method: as §1
Data set [1] is described as follows: Pharmacokinetic study, plasma and sciatic nerve after single oral gavage. It counts as in vivo, NSG mice. An excerpt:
The UCF animal facility is accredited by the Association for Assessment and Accreditation of Laboratory Animal Care. A total of 50 six- to eight-week-old mice were used for pharmacokinetic studies. […] Drugs were delivered via 0.5% methylcellulose, 0.2% Tween 80, 10% DMSO vehicle. Ten mice (three per drug and one control receiving vehicle alone) were used at each time point. Collected samples were frozen and sent to Cyprotex (Watertown, MA, USA) for LC-MS/MS quantitation of drug levels. Pharmacokinetic calculations were performed using the PKSolver software. The plasma half-life (t½) was calculated as the time required to reduce by half the plasma concentration after reaching pseudo-equilibrium and is not the time required to eliminate half the administered dose. An additional LC-MS/MS analyses of a subset of the treated mice (see below) was conducted. […] Three mice from each treatment group were selected randomly at the end of the in vivo study to assess the levels of drug in plasma, intact control nerve, and tumor. Samples were collected 4h after the final oral gavage, frozen, and sent to Cyprotex for analysis.

Data set [2] is described as follows: Drug levels in plasma, control nerve and tumor at end of in vivo study. Set-up: species or system NSG mice. Particulars: 4h after final oral gavage, 14 days of daily treatment. The source says: Male and female NOD.Cg-Prkdcscid Il2rgtm1Wjl/SzJ (NSG) mice were bred in house and all care and use was approved by the University of Central Florida (UCF) Institutional Animal Care and Usage Committee (IACUC; #19 – 05, approved 04/08/2019). The UCF animal facility is accredited by the Association for Assessment and Accreditation of Laboratory Animal Care. A total of 50 six- to eight-week-old mice were used for pharmacokinetic studies. […] Drugs were delivered via 0.5% methylcellulose, 0.2% Tween 80, 10% DMSO vehicle. Ten mice (three per drug and one control receiving vehicle alone) were used at each time point. Collected samples were frozen and sent to Cyprotex (Watertown, MA, USA) for LC-MS/MS quantitation of drug levels. Pharmacokinetic calculations were performed using the PKSolver software. The plasma half-life (t½) was calculated as the time required to reduce by half the plasma concentration after reaching pseudo-equilibrium and is not the time required to eliminate half the administered dose. An additional LC-MS/MS analyses of a subset of the treated mice (see below) was conducted. This was done to determine whether PF-3758309 was accessible to the tumor neo-vasculature that can differ from that of the organ/tissue housing the tumor. […]

The subject of data set [3] is MS01-Luc allografts (mouse MD-SCs). The data set is described as follows: Immunohistochemistry of allograft tumors. It counts as in vivo, NSG mice. Particulars: tumors after 14 days of treatment, n = 4/group.
Another data set deals with human MD-SCs. The data set is described as follows: Cell viability of MD-SC lines, monotherapy EC50 and combination synergy. It counts as cell-based. How it is done: as §1

With `COc1ccc(-c2nc(N3CCOCC3)c3sc(CN(C)c4ncc(C(=O)NO)cn4)cc3n2)cn1` [CUDC907], the “cleaved caspase 3/7 (CC3/7) signal” value with HS01 cells is given as “high CC-3/7 signal starting at 14h”.

As a reminder, the viability is a read-out of living cells in per cent, often relative to untreated cells. In the case of `Cc1nc(Nc2n[nH]c3c2CN(C(=O)N[C@H](CN(C)C)c2ccccc2)C3(C)C)c2sccc2n1` [PF-3758309], the viability at 0.03906 µM was 71% in the data set on HS01 cells (human MD-SC) (single drug 39.06 nM), 72% in the data set on HS03 cells (human MD-SC) (single drug 39.06 nM) and 61% with MS01 cells (mouse MD-SC) (single drug 39.06 nM). The viability at 0.07813 µM with HS01 cells (human MD-SC) (single drug 78.13 nM) was determined as 66%; in the data set with HS03 cells (human MD-SC) (single drug 78.13 nM) it was 67%; with MS01 cells (mouse MD-SC) (single drug 78.13 nM), 57%. Besides, the results for the viability at 0.15625 µM in the data set on HS01 cells (human MD-SC) (single drug 156.25 nM), in the data set with HS03 cells (human MD-SC) (single drug 156.25 nM) and with MS01 cells (mouse MD-SC) (single drug 156.25 nM) were 67%, 63% and 50%, respectively. Moreover, the viability at 0.3125 µM in the data set on HS01 cells (human MD-SC) (single drug 312.5 nM) turned out to be 65%; with HS03 cells (human MD-SC) (single drug 312.5 nM), 64%; in the data set on MS01 cells (mouse MD-SC) (single drug 312.5 nM), 48%. The viability at 0.625 µM in the data set on HS01 cells (human MD-SC) (single drug 625 nM) is 65%; in the data set on HS03 cells (human MD-SC) (single drug 625 nM), 62%; in the data set with MS01 cells (mouse MD-SC) (single drug 625 nM), 43%. Also, the viability at 1.25 µM amounted to 67% with HS01 cells (human MD-SC) (single drug 1250 nM), 59% in the data set with HS03 cells (human MD-SC) (single drug 1250 nM) and 40% with MS01 cells (mouse MD-SC) (single drug 1250 nM). The viability at 2.5 µM in the data set with HS01 cells (human MD-SC) (single drug 2500 nM) was 59%; in the data set on HS03 cells (human MD-SC) (single drug 2500 nM) it was 56%; in the data set with MS01 cells (mouse MD-SC) (single drug 2500 nM) it was 35%. In addition, the viability at 5 µM in the data set with HS01 cells (human MD-SC) (single drug 5000 nM) turned out to be 40%; in the data set on HS03 cells (human MD-SC) (single drug 5000 nM) it was 44%; with MS01 cells (mouse MD-SC) (single drug 5000 nM) it was 24%. The viability at 10 µM in the data set on HS01 cells (human MD-SC) (single drug 10000 nM) turned out to be 21%; with HS03 cells (human MD-SC) (single drug 10000 nM) it was 23%; with MS01 cells (mouse MD-SC) (single drug 10000 nM), 7%. Besides, in data set [1] (PF-3758309 25 mg/kg oral), the “half-life in plasma, together with pictilisib versus alone” value is listed as “similar”. In addition, the “maximum concentration in plasma” value in data set [1] (PF-3758309 25 mg/kg oral, alone) was determined as 110 ng/mL; in data set [1] (PF-3758309 25 mg/kg oral, co-administered with pictilisib 75 mg/kg) it was 341 ng/mL. Also, the Tmax in data set [1] (both sexes, NOD.Cg-Prkdcscid Il2rgtm1Wjl/SzJ (NSG), mouse, plasma, po, read-out: time of maximum plasma concentration) amounted to 2 h. Besides, the “detection in normal nerve” value in data set [1] (co-administered with pictilisib) is recorded as “remained undetected in normal nerve”. The “penetration of blood-nerve barrier / detection in intact nerve” value in data set [1] (single agent, single oral gavage) was “not detected in the intact nerve”. Also, the drug in tumor result in data set [2] is given as “bioavailable in the tumor”. Also, the “Ki67 staining (cell proliferation)” value in data set [3] is reported as “significantly decreased cell proliferation”. For the same molecule, in data set [3], the YAP staining reduction entry is “statistically significant”.

The EC50 is the concentration at which the effect is half-maximal. As to `COc1ncc(-c2ccc3nccc(-c4ccnnc4)c3c2)cc1NS(=O)(=O)c1ccc(F)cc1F` [omipalisib], the EC50 with human MD-SCs amounted to 2 nM.
